PubChem BioAssay AID1963432 (Molecular Pharmacology Branch, DTP, NCI, 2024)
pIC50: −log10 of the molar value.

System: SYO-1 complex spheroid growth, percent test/control
Assay: Anticancer human tumor SYO-1 cell line growth inhibition [Asc];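 note: compound exposure lasted 7 days after spheroids grew 3 days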;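 for viability, T/C: 100% = DMSO vehicle control viability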
Conditions: for pIC50: curve of first compound; for viability, T/C: stronger effect = lower value; active = viability on the fitted dose curve at most 10% of control; inactive = the rest
In short: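 Spheroid model: tumor line + HUVEC + hMSC. Single agents and combinations; top conc. at/near clinical Cmax (10 microM if undetermined), half-log dilutions. DMSO stocks at 800-fold test concentration.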

[1] = second compound 0.01 µM, first compound 0.00316 µM
[2] = second compound 0.01 µM, first compound 0.01 µM
[3] = second compound 0.01 µM, first compound 0.0316 µM
[4] = second compound 0.01 µM, first compound 0.1 µM
[5] = second compound 0.0316 µM, first compound 0.00316 µM
[6] = second compound 0.0316 µM, first compound 0.01 µM
[7] = second compound 0.0316 µM, first compound 0.0316 µM
[8] = second compound 0.0316 µM, first compound 0.1 µM
[9] = second compound 0.1 µM, first compound 0.00316 µM
[10] = second compound 0.1 µM, first compound 0.01 µM
[11] = second compound 0.1 µM, first compound 0.0316 µM
[12] = second compound 0.1 µM, first compound 0.1 µM
[13] = second compound 0.316 µM, first compound 0.00316 µM
[14] = second compound 0.316 µM, first compound 0.01 µM
[15] = second compound 0.316 µM, first compound 0.0316 µM
[16] = second compound 0.316 µM, first compound 0.1 µM
[17] = second compound 1 µM, first compound 0.00316 µM
[18] = second compound 1 µM, first compound 0.01 µM
[19] = second compound 1 µM, first compound 0.0316 µM
[20] = second compound 1 µM, first compound 0.1 µM
[21] = second compound 0.01 µM, first compound 0.316 µM
[22] = second compound 0.01 µM, first compound 1 µM
[23] = second compound 0.0316 µM, first compound 0.316 µM
[24] = second compound 0.0316 µM, first compound 1 µM
[25] = second compound 0.1 µM, first compound 0.316 µM
[26] = second compound 0.1 µM, first compound 1 µM
[27] = second compound 0.316 µM, first compound 0.316 µM
[28] = second compound 0.316 µM, first compound 1 µM
[29] = second compound 1 µM, first compound 0.316 µM
[30] = second compound 1 µM, first compound 1 µM

Cn1ncnc1[C@H]1c2n[nH]c(=O)c3cc(F)cc(c23)N[C@@H]1c1ccc(F)cc1 + CNC(C)C(=O)NC1CN(S(=O)(=O)c2cccc(S(=O)(=O)N3CCC4CCC(C(=O)NC(c5ccccc5)c5ccccc5)N4C(=O)C(NC(=O)C(C)NC)C3)c2)CCC2CCC(C(=O)NC(c3ccccc3)c3ccccc3)N2C1=O
< 7.00: pIC50 (second compound 0.01 µM) | pIC50 (second compound 0.0316 µM) | pIC50 (second compound 0.1 µM) | pIC50 (second compound 0.316 µM) | pIC50 (second compound 1 µM)
inactive: viability, T/C (second compound 0.01 µM, first compound 0.000316 µM) 107% | viability, T/C (second compound 0.01 µM, first compound 0.001 µM) 106% | viability, T/C [1] 103% | viability, T/C [2] 91.8% | viability, T/C [3] 76.8% | viability, T/C [4] 82.9% | viability, T/C (second compound 0.0316 µM, first compound 0.000316 µM) 101% | viability, T/C (second compound 0.0316 µM, first compound 0.001 µM) 102% | viability, T/C [5] 103% | viability, T/C [6] 98.3% | viability, T/C [7] 75.8% | viability, T/C [8] 86.3% | viability, T/C (second compound 0.1 µM, first compound 0.000316 µM) 108% | viability, T/C (second compound 0.1 µM, first compound 0.001 µM) 93.6% | viability, T/C [9] 96.8% | viability, T/C [10] 93.4% | viability, T/C [11] 75.4% | viability, T/C [12] 86.3% | viability, T/C (second compound 0.316 µM, first compound 0.000316 µM) 112% | viability, T/C (second compound 0.316 µM, first compound 0.001 µM) 103% | viability, T/C [13] 95% | viability, T/C [14] 92.1% | viability, T/C [15] 66.8% | viability, T/C [16] 86.4% | viability, T/C (second compound 1 µM, first compound 0.000316 µM) 98.2% | viability, T/C (second compound 1 µM, first compound 0.001 µM) 107% | viability, T/C [17] 96.3% | viability, T/C [18] 93.6% | viability, T/C [19] 78.9% | viability, T/C [20] 85.7%

O=C(c1cc(Cc2n[nH]c(=O)c3ccccc23)ccc1F)N1CCN(C(=O)C2CC2)CC1 + CNC(C)C(=O)NC1CN(S(=O)(=O)c2cccc(S(=O)(=O)N3CCC4CCC(C(=O)NC(c5ccccc5)c5ccccc5)N4C(=O)C(NC(=O)C(C)NC)C3)c2)CCC2CCC(C(=O)NC(c3ccccc3)c3ccccc3)N2C1=O
active: viability, T/C (second compound 0.01 µM, first compound 10 µM) 9.58% | viability, T/C (second compound 0.0316 µM, first compound 10 µM) 8.65% | viability, T/C (second compound 0.1 µM, first compound 10 µM) 8.36% | viability, T/C (second compound 0.316 µM, first compound 10 µM) 5.64% | viability, T/C (second compound 1 µM, first compound 10 µM) 5.84%
5.35: pIC50 (second compound 0.0316 µM)
5.33: pIC50 (second compound 0.01 µM)
5.37: pIC50 (second compound 0.316 µM)
inactive: viability, T/C [3] 99.8% | viability, T/C [4] 95.9% | viability, T/C [21] 105% | viability, T/C [22] 94.6% | viability, T/C (second compound 0.01 µM, first compound 3.16 µM) 71.9% | viability, T/C [7] 104% | viability, T/C [8] 96.8% | viability, T/C [23] 94.2% | viability, T/C [24] 93.6% | viability, T/C (second compound 0.0316 µM, first compound 3.16 µM) 67.5% | viability, T/C [11] 105% | viability, T/C [12] 95.4% | viability, T/C [25] 103% | viability, T/C [26] 93.5% | viability, T/C (second compound 0.1 µM, first compound 3.16 µM) 66.3% | viability, T/C [15] 98.6% | viability, T/C [16] 94.7% | viability, T/C [27] 99.8% | viability, T/C [28] 96.4% | viability, T/C (second compound 0.316 µM, first compound 3.16 µM) 65.8% | viability, T/C [19] 97.4% | viability, T/C [20] 102% | viability, T/C [29] 90.3% | viability, T/C [30] 91.7% | viability, T/C (second compound 1 µM, first compound 3.16 µM) 59.9%
5.41: pIC50 (second compound 1 µM)
5.36: pIC50 (second compound 0.1 µM)

O=C(c1ccc(F)c(F)c1Nc1ccc(I)cc1F)N1CC(O)([C@@H]2CCCCN2)C1 + CNC(C)C(=O)NC1CN(S(=O)(=O)c2cccc(S(=O)(=O)N3CCC4CCC(C(=O)NC(c5ccccc5)c5ccccc5)N4C(=O)C(NC(=O)C(C)NC)C3)c2)CCC2CCC(C(=O)NC(c3ccccc3)c3ccccc3)N2C1=O
< 6.00: pIC50 (second compound 0.01 µM) | pIC50 (second compound 0.0316 µM) | pIC50 (second compound 0.1 µM) | pIC50 (second compound 0.316 µM) | pIC50 (second compound 1 µM)
inactive: viability, T/C [1] 97.8% | viability, T/C [2] 105% | viability, T/C [3] 102% | viability, T/C [4] 98.1% | viability, T/C [21] 97.6% | viability, T/C [22] 103% | viability, T/C [5] 106% | viability, T/C [6] 106% | viability, T/C [7] 95.2% | viability, T/C [8] 95.2% | viability, T/C [23] 95% | viability, T/C [24] 94.5% | viability, T/C [9] 99.5% | viability, T/C [10] 106% | viability, T/C [11] 105% | viability, T/C [12] 92.1% | viability, T/C [25] 96.9% | viability, T/C [26] 93.6% | viability, T/C [13] 113% | viability, T/C [14] 104% | viability, T/C [15] 99.6% | viability, T/C [16] 96% | viability, T/C [27] 99.8% | viability, T/C [28] 97.8% | viability, T/C [17] 97.7% | viability, T/C [18] 103% | viability, T/C [19] 113% | viability, T/C [20] 98.4% | viability, T/C [29] 92.4% | viability, T/C [30] 91.2%
